How the values were obtained:
Experiment in all cases: relative viability (nuclei count vs DMSO), 5 days (fraction); higher = more cells survive
Seliciclib = compound: CC[C@H](CO)Nc1nc(NCc2ccccc2)c2ncn(C(C)C)c2n1 [Seliciclib]
How it was run: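 Vehicle-anchored 1536-well plates of lung cancer cell lines, held overnight at 37 °C, were pinned with five library-drug doses (not always all listed) spaced by √10. No medium change followed over the next 5 days, after which the cells were fixed, permeabilised and Hoechst-stained together and imaged at 4×. Nuclei were counted with MetaXpress, and viability is treated-well nuclei over vehicle-well nuclei, taken as a median across plates. Plates passed with control CV below 25% and at least one doubling.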

Seliciclib + Olaparib = compound: CC[C@H](CO)Nc1nc(NCc2ccccc2)c2ncn(C(C)C)c2n1 [Seliciclib] + O=C(c1cc(Cc2n[nH]c(=O)c3ccccc23)ccc1F)N1CCN(C(=O)C2CC2)CC1 [Olaparib] (partner 8 µM)
How it was run: (§1)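 Relative viability divides the nuclei count in treated wells by that in vehicle wells. Lung cancer cell lines were seeded in 1536-well plates, dosed by pin tool the next day, and fixed and stained after 5 days in one step with final 0.05% Triton X-100, 1% formaldehyde and 1 ug/ml Hoechst. Dosing was a single drug or a fixed anchor-drug dose plus five library-drug doses (not always all listed) in √10 steps, and values are medians of duplicate plates imaged at 4×.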

Seliciclib + Phenformin = compound: CC[C@H](CO)Nc1nc(NCc2ccccc2)c2ncn(C(C)C)c2n1 [Seliciclib] + N=C(N)NC(=N)NCCc1ccccc1 [Phenformin] (partner 250 µM)
How it was run: as §1

Seliciclib + Trametinib = compound: CC[C@H](CO)Nc1nc(NCc2ccccc2)c2ncn(C(C)C)c2n1 [Seliciclib] + CC(=O)Nc1cccc(-n2c(=O)n(C3CC3)c(=O)c3c(Nc4ccc(I)cc4F)n(C)c(=O)c(C)c32)c1 [Trametinib] (partner 0.02 µM)
How it was run: as §1

Row | Cell Line | relative viability (Seliciclib; 0.08 µM) | relative viability (Seliciclib; 0.253 µM) | relative viability (Seliciclib; 0.8 µM) | relative viability (Seliciclib; 2.53 µM) | relative viability (Seliciclib; 8 µM) | relative viability (Seliciclib + Olaparib; first compound 0.08 µM) | relative viability (Seliciclib + Olaparib; first compound 0.253 µM) | relative viability (Seliciclib + Olaparib; first compound 0.8 µM) | relative viability (Seliciclib + Olaparib; first compound 2.53 µM) | relative viability (Seliciclib + Olaparib; first compound 8 µM) | relative viability (Seliciclib + Phenformin; first compound 0.08 µM) | relative viability (Seliciclib + Phenformin; first compound 0.253 µM) | relative viability (Seliciclib + Phenformin; first compound 0.8 µM) | relative viability (Seliciclib + Phenformin; first compound 2.53 µM) | relative viability (Seliciclib + Phenformin; first compound 8 µM) | relative viability (Seliciclib + Trametinib; first compound 0.08 µM) | relative viability (Seliciclib + Trametinib; first compound 0.253 µM) | relative viability (Seliciclib + Trametinib; first compound 0.8 µM) | relative viability (Seliciclib + Trametinib; first compound 2.53 µM) | relative viability (Seliciclib + Trametinib; first compound 8 µM)
1 | NCI-H1734 | 1.02 | 0.802 | 1.04 | 0.812 | 0.741 | 0.58 | 0.513 | 0.595 | 0.536 | 0.521 | 0.385 | 0.35 | 0.311 | 0.334 | 0.356 | 0.717 | 0.528 | 0.677 | 0.664 | 0.572
2 | SK-MES-1 | 0.999 | 1.03 | 0.942 | 1 | 0.857 | 0.764 | 0.726 | 0.647 | 0.564 | 0.342 | 0.686 | 0.755 | 0.619 | 0.672 | 0.635 | 0.478 | 0.482 | 0.55 | 0.602 | 0.504
3 | NCI-H520 | 0.918 | – | 0.968 | 1.12 | 0.843 | 0.327 | 0.396 | 0.318 | 0.346 | 0.388 | 0.61 | – | 0.571 | 0.634 | 0.38 | 0.617 | 0.411 | 0.669 | 0.599 | 0.625
4 | EPLC-272H | 0.982 | 0.876 | 0.863 | 0.863 | 0.844 | 0.919 | 0.729 | 0.667 | 0.791 | 0.441 | 0.329 | 0.335 | 0.295 | 0.219 | 0.333 | 0.298 | 0.269 | 0.309 | 0.258 | 0.244
5 | UMC-11 | 0.974 | 0.872 | 1.03 | 0.926 | 0.824 | 0.367 | 0.388 | 0.381 | 0.352 | 0.293 | 0.341 | 0.343 | 0.322 | 0.272 | 0.232 | 0.726 | 0.593 | 0.877 | 0.657 | 0.581
6 | NCI-H1792 | 0.938 | 0.939 | 0.944 | – | 0.791 | 0.338 | 0.341 | 0.399 | – | 0.322 | 0.421 | 0.308 | 0.306 | – | 0.329 | 0.353 | 0.329 | 0.408 | – | 0.372
7 | NCI-H1993 | 0.979 | 0.761 | 0.884 | 0.723 | 0.633 | 0.892 | 0.935 | 1.05 | 0.976 | 1.01 | 0.551 | 0.54 | 0.496 | 0.474 | 0.456 | 0.649 | 0.543 | 0.47 | 0.508 | 0.43
8 | NCI-H596 | 1.01 | – | 0.948 | 0.991 | 0.872 | 0.724 | – | 0.695 | 0.781 | 0.764 | 0.66 | – | 0.83 | 0.784 | 0.595 | 0.814 | – | 0.75 | 0.837 | 0.58
